In ChEMBL document CHEMBL1201862, “PubChem BioAssay data set” (2004):
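Cells were grown in 96-well plates and exposed to each compound for 48 hours at five concentrations; endpoints were interpolated linearly between bracketing concentrations, or set to the highest concentration if not reached. Here, GI50 denotes the concentration required for 50% inhibition of growth.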 Active and inactive are the calls of the source. Cut-off read from the data, not from the text of the source: active = GI50 up to about 1.1 µM and inactive = higher.

Legend:
Assay in all cases: growth of human tumour cells (NCI), 48 h
HOP-62 = system: HOP-62
TK-10 = system: TK-10
OVCAR-4 = system: OVCAR-4
BT-549 = system: BT-549
HCT-15 = system: HCT-15
A498 = system: A498
MDA-MB-231 = system: MDA-MB-231
MCF7 = system: MCF7
RPMI-8226 = system: RPMI-8226
K562 = system: K562
SF-295 = system: SF-295
CAKI-1 = system: CAKI-1
UO-31 = system: UO-31
MDA-MB-435 = system: MDA-MB-435
DU-145 = system: DU-145
NCI/ADR-RES = system: NCI/ADR-RES
HCC 2998 = system: HCC 2998
OVCAR-5 = system: OVCAR-5
HOP-92 = system: HOP-92

| Structure (SMILES) | GI50 (HOP-62) | GI50 (TK-10) | GI50 (OVCAR-4) | GI50 (BT-549) | GI50 (HCT-15) [µM] | GI50 (A498) | GI50 (MDA-MB-231) | GI50 (MCF7) | GI50 (RPMI-8226) | GI50 (K562) | GI50 (SF-295) | GI50 (CAKI-1) | GI50 (UO-31) | GI50 (MDA-MB-435) | GI50 (DU-145) | GI50 (NCI/ADR-RES) | GI50 (HCC 2998) | GI50 (OVCAR-5) | GI50 (HOP-92) |
| --- | --- | --- | --- | --- | --- | --- | --- | --- | --- | --- | --- | --- | --- | --- | --- | --- | --- | --- | --- |
| C=CCOC1=C(OC(C)=O)C(=O)OC1C1COC(C)(C)O1 (centres undefined) | 29.4 µM (inactive) | 67 µM (inactive) | 17.2 µM (inactive) | 43.1 µM (inactive) | 19.5 | > 89.5 µM (inactive) | 38.4 µM (inactive) | 28.2 µM (inactive) | 31.8 µM (inactive) | 23.6 µM (inactive) | 79.1 µM (inactive) | 37.7 µM (inactive) | 28.1 µM (inactive) | 34.3 µM (inactive) | > 92.9 µM (inactive) | > 61.5 µM (inactive) | 36.4 µM (inactive) | 60 µM (inactive) |  |
| COC(=O)CN(CC(=O)NCCNC(=O)OC(C)(C)C)C1CCCCC1N(CC(=O)OC)CC(=O)OC (centres undefined) | > 100 µM (inactive) | > 100 µM (inactive) |  | > 100 µM (inactive) | > 100 | > 100 µM (inactive) | > 100 µM (inactive) | > 100 µM (inactive) | > 100 µM (inactive) | > 100 µM (inactive) | > 100 µM (inactive) | > 100 µM (inactive) | > 100 µM (inactive) | > 100 µM (inactive) | > 100 µM (inactive) | > 100 µM (inactive) | > 100 µM (inactive) | > 100 µM (inactive) |  |
| C1CCC(CC2CCC(NC3=NCCO3)CC2)CC1 (centres undefined) | 20.6 µM (inactive) | 15.3 µM (inactive) | 20.2 µM (inactive) |  | 12.3 | 26 µM (inactive) | 19.4 µM (inactive) | 17.5 µM (inactive) | 26.1 µM (inactive) | 14 µM (inactive) | 19.7 µM (inactive) | 24.5 µM (inactive) | 19.9 µM (inactive) | 17.4 µM (inactive) | 30 µM (inactive) | 19.4 µM (inactive) | 20.7 µM (inactive) | 23.6 µM (inactive) |  |
| Cc1ccc(N(Cc2ccccc2)Cc2ccccc2)cc1 | 26.7 µM (inactive) | > 100 µM (inactive) | 32.7 µM (inactive) | > 100 µM (inactive) | 40.9 | 61.4 µM (inactive) | > 100 µM (inactive) | 37.8 µM (inactive) | 18.5 µM (inactive) | 55.8 µM (inactive) | 35.1 µM (inactive) | 47.9 µM (inactive) | 48.4 µM (inactive) | 37.2 µM (inactive) | > 100 µM (inactive) | > 100 µM (inactive) |  | > 100 µM (inactive) |  |
| CC1(C)C2CCC(N)(C2)C1N (centres undefined) | > 100 µM (inactive) | > 100 µM (inactive) | > 100 µM (inactive) | > 100 µM (inactive) | > 100 | > 100 µM (inactive) |  | > 100 µM (inactive) | > 100 µM (inactive) | > 100 µM (inactive) | > 100 µM (inactive) | > 100 µM (inactive) | > 100 µM (inactive) | > 100 µM (inactive) | > 100 µM (inactive) | > 100 µM (inactive) | > 100 µM (inactive) | > 100 µM (inactive) | 21.1 µM (inactive) |
| [N-]=[N+]=Nc1c(N2CCOCC2)c(Cl)nc2ccccc12 | 58.6 µM (inactive) | 61.2 µM (inactive) | 33.7 µM (inactive) | 25.4 µM (inactive) | 46.6 | 47.9 µM (inactive) | 23.1 µM (inactive) |  | 74 µM (inactive) | 37.6 µM (inactive) | 60.5 µM (inactive) | 60.5 µM (inactive) | 33.6 µM (inactive) | 42.5 µM (inactive) |  | 26.4 µM (inactive) | 92.7 µM (inactive) | > 100 µM (inactive) | 46.7 µM (inactive) |
| O=C1/C(=C/c2ccco2)N=C2Sc3c([nH]cnc3=O)N12 | > 100 µM (inactive) | > 100 µM (inactive) | 44.4 µM (inactive) |  | > 100 | > 100 µM (inactive) | > 100 µM (inactive) | > 100 µM (inactive) | > 100 µM (inactive) | > 100 µM (inactive) | > 100 µM (inactive) | > 100 µM (inactive) | > 100 µM (inactive) | > 100 µM (inactive) | > 100 µM (inactive) | > 100 µM (inactive) |  | > 100 µM (inactive) | > 100 µM (inactive) |
| COc1cc2c(cc1NC(=O)c1ccccc1)c1c(n2S(=O)(=O)c2ccccc2)CCN(S(=O)(=O)c2ccccc2)C1 | > 100 µM (inactive) |  | > 100 µM (inactive) | > 100 µM (inactive) | > 100 | > 100 µM (inactive) |  |  | > 100 µM (inactive) | > 100 µM (inactive) |  |  |  | > 100 µM (inactive) | > 100 µM (inactive) | > 100 µM (inactive) | > 100 µM (inactive) | > 100 µM (inactive) | > 100 µM (inactive) |
